In patent US20170129911A1, “COMPLEXES COMPRISING A PLATINUM COMPOUND AND AN IMMUNE CHECKPOINT INHIBITOR AND RELATED METHODS” (Massachusetts Institute of Technology, priority 2015, published 2017):

Key:
[1] = system: human IDO in SKOV3 cells; assay: Immunoblotting and qRT-PCR of IDO expression in SKOV3 cells; assay type: cell-based
Description: Total RNA was isolated with the Qiagen RNAeasy RNA isolation kit (Hilden, Germany) and cDNA was synthesized with the Applied Biosystems reverse-transcription-kit (Foster City, Calif., USA). qRT-PCR was performed in a Light cycler 480 II thermo cycler with SYBR Green PCR Mastermix (Roche). All primers were separated by at least one intron on the genomic DNA to exclude its amplification. PCR reactions were checked by including no-RT controls, by omission of templates, and by melting curves. Standard curves were generated for each gene. Relative quantification of gene expression was determined by comparison of threshold values. All samples were analyzed in duplicate at two different dilutions. All results were normalized to GAPDH.
Cells were washed with PBS, scraped into SDS-PAGE loading buffer (64 mM Tris-HCl (pH 6.8)/9.6% glycerol/2% SDS/5% β-mercaptoethanol/0.01% Bromophenol Blue), and incubated at 95° C. for 10 min. […] Membranes were blocked in 5% (w/v) bovine serum albumin in PBST (PBS/0.1% Tween 20) and incubated with the appropriate primary antibodies (Cell Signalling Technology and Santa Cruz). After incubation with horseradish peroxidase-conjugated secondary antibodies (Cell Signalling Technology), 1:1000, immuno complexes were detected with the ECL detection reagent (BioRad) and analyzed using UVP biospectrum imaging system fitted with a chemiluminescence filter.

[2] = Whole human blood stability test; assay type: in vitro ADME
Description: To a volume of 0.8 mL fresh whole human blood (Innovative Research, Novi, Mich.) was added 24 μL of a DMSO solution of 2 (2.0 mM), resulting in a final concentration of 60 μM. After 5 sec of vortexing, a 100 μL aliquot of the blood sample (0 h time point) was immediately transferred to a new tube containing 300 μL of octanol, and the remaining […] of blood was incubated at 37° C. with rotation (1100 rpm). The blood-octanol mixture was vortexed for 2 min at R.T. and then centrifuged to separate the phases. The isolated octanol extract was diluted with methanol for GFAAS measurement. At varying time points (1 h, 2 h, 3 h, 5 h, and 7 h), a 100 μL aliquot was removed from the incubating blood and extracted as described above. For the 7 h sample, analytical HPLC was employed to confirm the integrity of the Pt compound. A standard of 2 and an octanol extract from blank whole human blood were used for comparison.

[3] = physchem
[4] = Tolerability/toxicity in mice; assay type: in vivo
[5] = Water-octanol partition coefficient (Log P), shake-flask method and GFAAS; details: octanol/PBS
[6] = system: NIH:OVCAR3 human ovarian cancer cells; assay: Cytotoxicity MTT assay, NIH:OVCAR3; assay type: cell-based
Source text: (§1) Ovarian carcinoma cells, NIH:OVCAR3, A2780, A2780/CP70, and SKOV3 were purchased from the American Type Culture Collection (ATCC, Rockville Md.). Peripheral blood mononuclear cells (PBMCs) of two different donors were obtained from Zen Bio Inc. (Research Triangle, NC). Cancer cell lines were maintained in Roswell Park Memorial Institute (RPMI) medium (glutamine-free supplemented with 10% fetal bovine serum, Atlanta Biologics, Atlanta Ga.) and 1% penicillin/streptomycin. PBMCs were thawed in specialized medium (10% […], 40% RPMI and 50% FBS) and subsequently cultured in RPMI containing 20% FBS. For T-cell proliferation experiments, PBMCs were stimulated by the addition of phytohemagglutinin (PHA-P). All cells were grown at 310 K in a humidified atmosphere containing 5% CO2. D-1-methyltryptophan, L-tryptophan and L-kynurenine were purchased from Sigma Aldrich.
(§2) The colorimetric MTT assay was used to determine the toxicity of 1, 2, and cisplatin. Cells (2×10^3) were seeded in each well of a 96-well plate. […] Cisplatin was prepared as a 5 mM solution in PBS and diluted using media. 1, 2 and C16—Pt-Suc-NHC2H4OH were prepared as 10 mM solution in DMSO and diluted using media. […] The absorbance of the solution wells was read at 570 and 650 nm. Absorbance values were normalized to DMSO-containing control wells and plotted as concentration of test compound versus % cell viability. […]

[7] = system: SKOV3 human ovarian cancer cells; assay: Cytotoxicity MTT assay, SKOV3; assay type: cell-based
Source text: as §1, §2

[8] = system: A2780/CP70 human ovarian cancer cells; assay: Cytotoxicity MTT assay, A2780/CP70; assay type: cell-based; details: A2780/CP70, MTT, 72 h
Source text: as §1
The colorimetric MTT assay was used to determine the toxicity of 1, 2, and cisplatin. Cells (2×10^3) were seeded in each well of a 96-well plate. […] Cisplatin was prepared as a 5 mM solution in PBS and diluted using media. 1, 2 and C16—Pt-Suc-NHC2H4OH were prepared as 10 mM solution in DMSO and diluted using media. The final volume amount of DMSO in each well was 0.5%, and which was present in the untreated control as well. Cells co-incubated with cisplatin and (D)-1-MT were first pre-treated with 1 mM (D)-1-MT. […] The RPMI/MTT, mixture was aspirated and 100 μL of DMSO was added to dissolve the resulting purple formazan crystals. The absorbance of the solution wells was read at 570 and 650 nm. Absorbance values were normalized to DMSO-containing control wells and plotted as concentration of test compound versus % cell viability. IC50 values were interpolated from the resulting dose dependent curves. The reported IC50 values are the average of at least three independent experiments, each of which consisted of six replicates per concentration level.

[9] = system: A2780 human ovarian cancer cells; assay: Cytotoxicity MTT assay, A2780; assay type: cell-based; details: 72 h
Source text: as §1, §2

[10] = system: HCT 116 P53+/+ colorectal cell line; assay: MTT anticancer activity, HCT116 p53 +/+; assay type: cell-based; details: 48 h
Description: (§3) An MTT assay was run to measure the compounds anti cancer activity. The two colorectal cell lines HCT 116 P53+/+ and HCT 116 P53−/− were plated on 96 well plates. After adhesion to the plate, each individual compound was added to three rows, each consisting of 8 wells with a 3 fold dilution in concentration per well beginning at 25 μM. After 48 hours of incubation, the MTT reagent was added to the plates, which were then incubated for another 4 hours. The well contents were then dissolved in 200 μL of DMSO, and the plates were read for UV absorption at 570 nm and 650 nm. The collected data was then analyzed to produce the sigmoidal curves, which were then used to interpolate the IC50 values of each compounds. (See Table 3).

[11] = system: HCT 116 P53−/− colorectal cell line; assay: MTT anticancer activity, HCT116 p53 −/−; assay type: cell-based; details: 48 h
Description: as §3

[12] = reported values used for comparison with human blood stability; cited from earlier work
[13] = system: SKOV3 cells; assay: Cell cycle analysis by flow cytometry (DNA content)
[14] = system: genomic DNA; assay: DNA platination experiments; assay type: cell-based, human; details: SKOV3, 10 μM, 17 h
Description: To gain further insight into the mode of action was studied of 1 and 2, the subcellular distribution of platinum. SKOV3 cells were incubated with the drug candidates (5 μM) for 17 h, using cisplatin as a control. The platinum content was measured by using GFAAS.
These cells were then treated with the compounds (10 μM) in fresh medium (9 mL) and subsequently incubated for 17 h at 37° C. The medium was aspirated and the cells were washed with PBS (3×8 mL), harvested by trypsinization (1 mL), and washed with 2 mL of PBS. The cell suspension was centrifuged at 2000 rpm for 5 min at 4° C. The cell pellet was suspended in DNAzol (1 mL, genomic DNA isolation reagent,). The DNA was precipitated with pure ethanol (0.5 mL), washed with 75% ethanol (0.75 mL×3), and re-dissolved in 500 μL of 8 mM NaOH. The DNA concentration was determined by UV-Vis spectroscopy and the platinum content was quantified by GFAAS. All experiments were carried out in triplicate.

What does the source list for Cn1cc(C[C@@H](N)C(=O)[O][Pt]([NH2])([NH2])([Cl])([Cl])[O]C(=O)[C@H](N)Cc2cn(C)c3ccccc23)c2ccccc21 (mixture of isomers) [Compound 1, cis,cis,trans-[Pt(NH3)2Cl2(O2C-D-1-MT)2]]?
concentration at which IDO protein expression is blocked ([1]; immunoblotting): 100 µM; stability in blood [2]: stable in blood; logP at 3 h [3]: -0.21 ± 0.08; toxicity / tolerance in mice [4]: low toxicity in mice

Which results are given for Cn1cc(C[C@@H](N)C(=O)O)c2ccccc21 [(D)-1-MT, D-1-methyltryptophan]?
logP at 3 h [5]: -2.98 ± 0.15; IC50 ([6]; Homo sapiens, OVCAR-3, 72 h): 1200 ± 80 µM; IC50 ([7]; Homo sapiens, SK-OV-3, 72 h): 1918 ± 8.4 µM; IC50 ([8]; Homo sapiens): 1040 ± 63.9 µM; IC50 ([9]; Homo sapiens): 833 ± 7.53 µM

For CCCCCCCCCCCCCCCCNC(=O)[O][Pt]([NH2])([NH2])([Cl])([Cl])[O]C(=O)CCC(=O)O [C16—Pt-Suc, reference compound], which “IDO protein expression (IDO inhibition)” value ([1]; immunoblotting and qRT-PCR) is on record?
The value was “did not show IDO inhibition”.

Which IC50 [10] does the source give for O=C(O)C(=O)O.[NH-][C@@H]1CCCC[C@H]1[NH-].[Pt+2] [Oxaliplatin] here?
The IC50 was 1.32 ± 1.48 µM.

What about the IC50 [11] of the same compound?
The IC50 was 6.55 ± 1.78 µM.

Which “t1/2 (reported)” value [12] does the source give for CC(=O)[O][Pt]([NH2])([Cl])([Cl])([NH]C1CCCCC1)[O]C(C)=O [satraplatin] here?
The value was 6 min.

For [cis-Pt(NH3)2Cl2] [Cisplatin], which “cell cycle arrest phase” value [13] is on record?
The value was “G2/M arrest”.

And the “t1/2 (reported)” value [12]?
Its value is 21.6 min.

And the DNA platination [14]?
The DNA platination was 409±54 Pt adducts/10^4 nucleotides.

And the IC50 ([6]; 72 h)?
The IC50 was 4.1 ± 0.2 µM.

What about the IC50 ([7]; 72 h) of the same compound?
Its IC50 is 3.7 ± 0.28 µM.

And the IC50 [8]?
Its IC50 is 10.4 ± 0.6 µM.

What about the IC50 [9] of the same compound?
Its IC50 is 0.7 ± 0.2 µM.
